Results: the NIST ThermoML archive (doi:10.1016/j.fluid.2019.112248)
Values joined by “and” are separate entries in the source; they are usually repeats but may differ in a detail not shown here. Identical values can stand only once.

Key:
[1] = molar heat capacity at constant pressure; conditions: 101.33 kPa, Liquid, DSC
[2] = Molar enthalpy of transition or fusion; conditions: DSC
[3] = for vapor or sublimation pressure: Liquid, Closed cell (Static) method; for Normal melting temperature: DTA
[4] = Boiling temperature at pressure P; conditions: 100 kPa; Glass; DTA

C=CCc1ccc(O)c(OC)c1 [2-hydroxy-5-allylanisole]
Conditions | Molar enthalpy of transition or fusion [kcal/mol] | Normal melting temperature [°C] | molar heat capacity at constant pressure [J/K/mol] | vapor or sublimation pressure
[1], 265 K | – | – | 311.2 | –
[1], 270 K | – | – | 312.8 | –
[1], 275 K | – | – | 314.5 | –
[1], 280 K | – | – | 315.8 | –
[1], 285 K | – | – | 317.4 | –
[1], 290 K | – | – | 319.2 | –
[1], 295 K | – | – | 321 | –
[1], 300 K | – | – | 322.9 | –
[1], 305 K | – | – | 324.8 | –
[1], 310 K | – | – | 326.4 | –
[1], 315 K | – | – | 328.2 | –
[1], 320 K | – | – | 329.9 | –
[1], 325 K | – | – | 331.7 | –
[1], 330 K | – | – | 333.3 | –
[1], 335 K | – | – | 334.8 | –
[1], 340 K | – | – | 336.1 | –
[1], 345 K | – | – | 337.1 | –
[1], 350 K | – | – | 338.2 | –
[1], 355 K | – | – | 339.1 | –
[2], Crystal 1 | 4.06 | – | – | –
[2], Crystal 2 | 2.01 | – | – | –
[3], 273.7 K | – | – | – | 0.000153 kPa and 0.000152 kPa
[3], 278.19 K | – | – | – | 0.000252 kPa and 0.000251 kPa
[3], 283.19 K | – | – | – | 0.000451 kPa and 0.000443 kPa and 0.000444 kPa
[3], 288.19 K | – | – | – | 0.000724 kPa and 0.000725 kPa and 0.000723 kPa
[3], 293.2 K | – | – | – | 0.001256 kPa and 0.001233 kPa and 0.001223 kPa
[3], 298.2 K | – | – | – | 0.00193 kPa and 0.001938 kPa and 0.001934 kPa
[3], 303.2 K | – | – | – | 0.00307 kPa and 0.003081 kPa and 0.003077 kPa
[3], 308.2 K | – | – | – | 0.004871 kPa
[3], 308.21 K | – | – | – | 0.004864 kPa and 0.004868 kPa
[3], Crystal 1 | – | -11.3 | – | –
[3], Crystal 2 | – | -28.5 | – | –

Conditions | Boiling temperature at pressure P [°C]
[4] | -81.7

C=C(C)[C@H]1CC=C(C)C(=O)C1 [d-carvone]
Conditions | Molar enthalpy of transition or fusion [kcal/mol] | Normal melting temperature [°C] | molar heat capacity at constant pressure [J/K/mol] | vapor or sublimation pressure
[1], 265 K | – | – | 264.9 | –
[1], 270 K | – | – | 266.7 | –
[1], 275 K | – | – | 268.7 | –
[1], 280 K | – | – | 270.6 | –
[1], 285 K | – | – | 272.9 | –
[1], 290 K | – | – | 275.2 | –
[1], 295 K | – | – | 277.7 | –
[1], 300 K | – | – | 280.3 | –
[1], 305 K | – | – | 282.7 | –
[1], 310 K | – | – | 284.9 | –
[1], 315 K | – | – | 287.1 | –
[1], 320 K | – | – | 289.5 | –
[1], 325 K | – | – | 292.1 | –
[1], 330 K | – | – | 294.3 | –
[1], 335 K | – | – | 296.5 | –
[1], 340 K | – | – | 298.2 | –
[1], 345 K | – | – | 299.7 | –
[1], 350 K | – | – | 301.1 | –
[1], 355 K | – | – | 302 | –
[2], Crystal | 2.68 | – | – | –
[3], 258.18 K | – | – | – | 0.000197 kPa and 0.000202 kPa and 0.000201 kPa
[3], 263.19 K | – | – | – | 0.000371 kPa and 0.000373 kPa
[3], 268.18 K | – | – | – | 0.000653 kPa and 0.000656 kPa
[3], 268.19 K | – | – | – | 0.000653 kPa
[3], 273.19 K | – | – | – | 0.001096 kPa and 0.001097 kPa
[3], 273.69 K | – | – | – | 0.001133 kPa and 0.001138 kPa
[3], 273.7 K | – | – | – | 0.001141 kPa
[3], 278.19 K | – | – | – | 0.001788 kPa and 0.001789 kPa and 0.00179 kPa
[3], 283.19 K | – | – | – | 0.002902 kPa and 0.002899 kPa and 0.002893 kPa
[3], 288.19 K | – | – | – | 0.004581 kPa
[3], 288.2 K | – | – | – | 0.004579 kPa and 0.004587 kPa
[3], 293.2 K | – | – | – | 0.007151 kPa and 0.007137 kPa
[3], 298.2 K | – | – | – | 0.0109 kPa
[3], 298.21 K | – | – | – | 0.0109 kPa
[3], 303.2 K | – | – | – | 0.01637 kPa and 0.01638 kPa
[3], 308.21 K | – | – | – | 0.02413 kPa and 0.02415 kPa
[3], Crystal | – | -26.4 | – | –
